The record followed here is patent US20050197350A1, “Novel quinoline, tetrahydroquinazoline, and pyrimidine derivatives and methods of treatment related to the use thereof” (TAISHO PHARMACEUTICAL CO., LTD., priority 2003, published 2005).

The test relates to MCH receptors. The test is described as follows: MCH receptor activity class (method not given).
Setting [1] is: class by percent of control at 10^-7 M or IC50.
[2] abbreviates: activity class per percent of control at 10^-7 M or IC50.
Setting [3] is: MCH receptor activity class 1-3 (percent of control at 10^-7 M or IC50).
[4] abbreviates: MCH receptor, class by percent of control at 10^-7 M or IC50.
Where [5] appears, read: class 1-3 by percent of control at 10^-7 M or IC50.
Where [6] appears, read: class by percent of control at 10^−7 M or IC50.
The mark [7] stands for this setting: activity class 1-3: percent of control at 10^-7 M or IC50.

Take `CN(C)c1cc(N[C@H]2CC[C@@H](NC(=O)c3ccc4ncsc4c3)CC2)nc2ccccc12` [compound 779]: the class under setting [1] is 3 (Class 3 The value of percent of control at 10^−7 M was more than 60% or the value of IC50 was more than 200 nM.).

With `CN(C)c1ccnc(N[C@H]2CC[C@@H](NC(=O)c3ccc(F)c(Cl)c3F)CC2)n1` [compound 280], the class under setting [1] is listed as 3 (Class 3 The value of percent of control at 10^−7 M was more than 60% or the value of IC50 was more than 200 nM.).

As for `CN(C)c1nc(N[C@H]2CC[C@@H](CNC(=O)CCc3ccccc3O)CC2)nc2c1CCCC2` [compound 1067], under setting [2], the class is on record as 3 (Class 3 The value of percent of control at 10^−7 M was more than 60% or the value of IC50 was more than 200 nM.).

Regarding `CN(C)c1ccnc(N[C@H]2CC[C@@H](CNC(=O)Nc3ccccc3I)CC2)n1` [compound 2424], the class under setting [3] was 3 (Class 3 The value of percent of control at 10^−7 M was more than 60% or the value of IC50 was more than 200 nM.).

Turning to `COc1cc(CNC[C@H]2CC[C@@H](Nc3nc4c(c(N(C)C)n3)CCCC4)CC2)cc(OC)c1` [compound 1380], the class under setting [1] is 2 (Class 2: The value of percent of control at 10^−7 M was from 40% to 60% or the value of IC′50 was from 50 nM to 200 nM.).

Consider `Cc1ccc([N+](=O)[O-])c(NC(=O)NC[C@H]2CC[C@@H](Nc3nccc(N(C)C)n3)CC2)c1C` [compound 2443], for which, under setting [3], the class is reported as 1 (Class 1: The value of percent of control at 10^−7 M was less than 40% or the value of IC50 was less than 50 nM.).

Consider `CN(C)c1cc(N[C@H]2CC[C@@H](NC(=O)c3cccc([N+](=O)[O-])c3)CC2)nc2ccccc12` [compound 44, N-(cis-4-{[4-(dimethylamino)quinolin-2-yl]amino}cyclohexyl)-3-nitrobenzamide], for which the class under setting [4] was 1 (Class 1: The value of percent of control at 10^−7 M was less than 40% or the value of IC50 was less than 50 nM.).

Turning to `CN(C)c1nc(N[C@H]2CC[C@@H](NC(=O)c3cn(Cc4ccccc4)c4ccccc34)CC2)nc2c1CCCC2` [compound 967], the class under setting [1] is listed as 3 (Class 3 The value of percent of control at 10^−7 M was more than 60% or the value of IC50 was more than 200 nM.).

Take `CN(C)c1nc(N[C@H]2CC[C@@H](NC(=O)c3ccc(C(F)(F)F)cc3)CC2)nc2c1CCCC2` [compound 553]: the class under setting [5] was 3 (Class 3 The value of percent of control at 10^−7 M was more than 60% or the value of IC50 was more than 200 nM.).

Take `Cc1ccc(C(=O)N[C@H]2CC[C@@H](Nc3ncc(C)c(N(C)C)n3)CC2)cc1F` [compound 2924, N-(cis-4-{[4-(dimethylamino)-5-methylpyrimidin-2-yl]amino}cyclohexyl)-3-fluoro-4-methylbenzamide]: the class under setting [6] is 1 (Class 1: The value of percent of control at 10^−7 M was less than 40% or the value of IC50 was less than 50 nM.).

As for `COc1c(Br)cc(Br)cc1CNC[C@H]1CC[C@@H](Nc2nc3c(c(N(C)C)n2)CCCC3)CC1` [compound 1413], the class under setting [1] is 1 (Class 1: The value of percent of control at 10^−7 M was less than 40% or the value of IC50 was less than 50 nM.).

As to `Cc1ccc(CNC[C@H]2CC[C@@H](Nc3nc4c(c(N(C)C)n3)CCCC4)CC2)s1` [compound 1422], the class under setting [1] is on record as 3 (Class 3 The value of percent of control at 10^−7 M was more than 60% or the value of IC50 was more than 200 nM.).

With `CN(C)c1nc(N[C@H]2CC[C@@H](CNC(=O)c3ccc(-c4ccccc4)cc3)CC2)nc2c1CCCC2` [compound 654], under setting [1], the class is 3 (Class 3 The value of percent of control at 10^−7 M was more than 60% or the value of IC50 was more than 200 nM.).

As for `CN(C)c1cc(N[C@H]2CC[C@@H](CNCc3cc(Cl)ccc3Cl)CC2)nc2ccccc12` [compound 1473], under setting [1], the class is recorded as 3 (Class 3 The value of percent of control at 10^−7 M was more than 60% or the value of IC50 was more than 200 nM.).

In the case of `CN(C)c1ccnc(N[C@H]2CC[C@@H](NC(=O)C3CC(=O)c4ccccc43)CC2)n1` (relative stereo) [compound 823], the class under setting [1] was 3 (Class 3 The value of percent of control at 10^−7 M was more than 60% or the value of IC50 was more than 200 nM.).

On to `Cc1cc(N(C)C)nc(N[C@H]2CC[C@@H](NC(=O)c3ccc(OC(F)(F)F)cc3)CC2)n1` [compound 2989, N-(cis-4-{[4-(dimethylamino)-6-methylpyrimidin-2-yl]amino}cyclohexyl)-4-(trifluoromethoxy)benzamide], for which the class under setting [6] is reported as 3 (Class 3 The value of percent of control at 10^−7 M was more than 60% or the value of IC50 was more than 200 nM.).

For `CN(C)c1ccnc(N[C@H]2CC[C@@H](NC(=O)Cc3c[nH]c4ccccc34)CC2)n1` [compound 850], under setting [1], the class is given as 2 (Class 2: The value of percent of control at 10^−7 M was from 40% to 60% or the value of IC′50 was from 50 nM to 200 nM.).

As to `COc1ccc2[nH]c(C)c(CC(=O)N[C@H]3CC[C@@H](Nc4nc5c(c(N(C)C)n4)CCCC5)CC3)c2c1` [compound 958], the class under setting [1] is given as 2 (Class 2: The value of percent of control at 10^−7 M was from 40% to 60% or the value of IC′50 was from 50 nM to 200 nM.).

Regarding `COc1cc(C(=O)N[C@H]2CC[C@@H](Nc3nc4c(c(N(C)C)n3)CCCC4)CC2)cc(OC)c1OC` [compound 551], the class under setting [5] is 3 (Class 3 The value of percent of control at 10^−7 M was more than 60% or the value of IC50 was more than 200 nM.).

`CN(C)c1cc(N[C@H]2CC[C@@H](CNC(=O)Nc3ccc(F)cc3F)CC2)nc2ccccc12` [compound 2361]: the class under setting [3] was 3 (Class 3 The value of percent of control at 10^−7 M was more than 60% or the value of IC50 was more than 200 nM.).

In the case of `CN(C)c1cc(N[C@H]2CC[C@@H](CNC(=O)Nc3ccc(F)cc3)CC2)nc2ccccc12` [compound 2364], the class under setting [3] is recorded as 3 (Class 3 The value of percent of control at 10^−7 M was more than 60% or the value of IC50 was more than 200 nM.).

In the case of `CCC(Oc1ccccc1)C(=O)N[C@H]1CC[C@@H](Nc2cc(N(C)C)c3ccccc3n2)CC1` (relative stereo) [compound 48, N-(cis-4-{[4-(dimethylamino)quinolin-2-yl]amino}cyclohexyl)-2-phenoxybutanamide], under setting [4], the class is reported as 1 (Class 1: The value of percent of control at 10^−7 M was less than 40% or the value of IC50 was less than 50 nM.).

In the case of `Cc1cc(N(C)C)nc(N[C@H]2CC[C@@H](C(=O)NCc3cccc(C(F)(F)F)c3)CC2)n1` [compound 2813, cis-4-{[4-(dimethylamino)-6-methylpyrimidin-2-yl]amino}-N-[3-(trifluoromethyl)benzyl]cyclohexanecarboxamide], the class under setting [6] is on record as 2 (Class 2: The value of percent of control at 10^−7 M was from 40% to 60% or the value of IC′50 was from 50 nM to 200 nM.).

In the case of `CN(C)c1nc(N[C@H]2CC[C@@H](NC(=O)C(Cc3ccccc3)c3ccccc3)CC2)nc2c1CCCC2` (relative stereo) [compound 954], the class under setting [1] is reported as 2 (Class 2: The value of percent of control at 10^−7 M was from 40% to 60% or the value of IC′50 was from 50 nM to 200 nM.).

On to `CN(C)c1nc(N[C@H]2CC[C@@H](NCc3coc4ccc(Cl)cc4c3=O)CC2)nc2c1CCCC2` [compound 1355], for which, under setting [1], the class is recorded as 3 (Class 3 The value of percent of control at 10^−7 M was more than 60% or the value of IC50 was more than 200 nM.).

As for `CN(C)c1ccc(CNC[C@H]2CC[C@@H](Nc3cc(N(C)C)c4ccccc4n3)CC2)cc1` [compound 1151], under setting [2], the class was 3 (Class 3 The value of percent of control at 10^−7 M was more than 60% or the value of IC50 was more than 200 nM.).

Turning to `COc1ccc(NC(=S)N[C@H]2CC[C@@H](Nc3nc4c(c(N(C)C)n3)CCCC4)CC2)c([N+](=O)[O-])c1` [compound 2017], under setting [4], the class is reported as 3 (Class 3 The value of percent of control at 10^−7 M was more than 60% or the value of IC50 was more than 200 nM.).

Consider `CN(C)c1ccnc(N[C@H]2CC[C@@H](CNCc3ccccc3OC(F)F)CC2)n1` [compound 1293], for which the class under setting [1] was 3 (Class 3 The value of percent of control at 10^−7 M was more than 60% or the value of IC50 was more than 200 nM.).

Take `CN(C)c1ccnc(NC2CCC(CNC(=O)OCc3ccc([N+](=O)[O-])cc3)CC2)n1` (stereo not drawn) [compound 1648]: under setting [7], the class was 3 (Class 3 The value of percent of control at 10^−7 M was more than 60% or the value of IC50 was more than 200 nM.).

Regarding `CN(C)c1ccnc(N[C@H]2CC[C@@H](NC(=O)c3cc(F)cc(F)c3)CC2)n1` [compound 252, N-(cis-4-{[4-(dimethylamino)pyrimidin-2-yl]amino}cyclohexyl)-3,5-difluorobenzamide], the class under setting [1] is given as 2 (Class 2: The value of percent of control at 10^−7 M was from 40% to 60% or the value of IC′50 was from 50 nM to 200 nM.).

For `CCc1cccc(CC)c1NC(=S)N[C@H]1CC[C@@H](Nc2cc(N(C)C)c3ccccc3n2)CC1` [compound 2277], the class under setting [1] was 1 (Class 1: The value of percent of control at 10^−7 M was less than 40% or the value of IC50 was less than 50 nM.).

For `COc1ccc(NC(=S)N[C@H]2CC[C@@H](Nc3cc(N(C)C)c4ccccc4n3)CC2)cc1OC` [compound 2176], under setting [1], the class is given as 3 (Class 3 The value of percent of control at 10^−7 M was more than 60% or the value of IC50 was more than 200 nM.).

As for `COc1ccc(CNC[C@H]2CC[C@@H](Nc3cc(N(C)C)c4ccccc4n3)CC2)c(OC)c1OC` [compound 1132], the class under setting [2] is listed as 3 (Class 3 The value of percent of control at 10^−7 M was more than 60% or the value of IC50 was more than 200 nM.).

`COc1cc(COC(=O)N[C@H]2CC[C@@H](Nc3nccc(N(C)C)n3)CC2)c([N+](=O)[O-])cc1OC` [compound 337]: under setting [1], the class is recorded as 3 (Class 3 The value of percent of control at 10^−7 M was more than 60% or the value of IC50 was more than 200 nM.).

For `CN(C)c1cc(N[C@H]2CC[C@@H](CNC(=O)Oc3cccc(C(F)(F)F)c3)CC2)nc2ccccc12` [compound 1562], under setting [7], the class was 3 (Class 3 The value of percent of control at 10^−7 M was more than 60% or the value of IC50 was more than 200 nM.).

Regarding `CN(C)c1nc(N[C@H]2CC[C@@H](CNC(=O)c3csc4ccccc34)CC2)nc2c1CCCC2` [compound 653], the class under setting [1] was 3 (Class 3 The value of percent of control at 10^−7 M was more than 60% or the value of IC50 was more than 200 nM.).
